Experimental data published in patent US8951964B2, “Phenanthridine macrocyclic hepatitis C serine protease inhibitors” (priority 2010, dated 2015).

Tests used:
Assay type in all cases: cell-based, HCV
[1] = test system: genotype 3a NS3 gene in transient replicon; assay: 3a transient replicon (luciferase reporter); details: Hepatitis C virus, Huh-7, read-out: 3a transient replicon (nM)
[2] = test system: genotype 1b replicon (1b-Con1, 1b-N); assay: 1b stable replicon (luciferase reporter); details: Hepatitis C virus, HuH-7 cells, 5% FBS
[3] = test system: genotype 1b transient replicon; assay: 1b transient replicon (luciferase reporter); details: Hepatitis C virus, HuH-7 cells, 5% FBS
[4] = test system: genotype 1a replicon (1a-H77); assay: 1a stable replicon (luciferase reporter); details: Hepatitis C virus, Huh-7, luciferase reporter, HuH-7 cells, 5% FBS
[5] = test system: genotype 1a transient replicon (1a-H77); assay: 1a transient replicon (luciferase reporter); details: Hepatitis C virus, HuH-7 cells, 5% FBS

SMILES	EC50 [1] [nM]	EC50 [2] [pM]	EC50 [3] [pM]	EC50 [4] [pM]	EC50 [5] [pM]
Cc1cc(C(=O)N[C@H]2CCCCC/C=C\[C@@H]3C[C@@]3(C(=O)NS(=O)(=O)C3CC3)NC(=O)[C@@H]3C[C@@H](Oc4nc5cccc(F)c5c5ccccc45)CN3C2=O)no1	> 1	100 to 500	100 to 500	500 to 1000	< 100
Cc1cc(C(=O)N[C@H]2CCCCC/C=C\[C@@H]3C[C@@]3(C(=O)NS(=O)(=O)C3(C)CC3)NC(=O)[C@@H]3C[C@@H](Oc4nc5ccccc5c5cc(F)ccc45)CN3C2=O)no1	> 1	100 to 500		500 to 1000	
CC1(S(=O)(=O)NC(=O)[C@@]23C[C@H]2/C=C\CCCCC[C@H](NC(=O)c2cncs2)C(=O)N2C[C@H](Oc4nc5ccccc5c5cc(F)ccc45)C[C@H]2C(=O)N3)CC1	> 1	100 to 500	100 to 500	500 to 1000	< 100
CC1(S(=O)(=O)NC(=O)[C@@]23C[C@H]2/C=C\CCCCC[C@H](NC(=O)c2cscn2)C(=O)N2C[C@H](Oc4nc5cc(F)ccc5c5cc(F)ccc45)C[C@H]2C(=O)N3)CC1	> 1	100 to 500	100 to 500	500 to 1000	< 100
CC1(S(=O)(=O)NC(=O)[C@@]23C[C@H]2/C=C\CCCCC[C@H](NC(=O)c2cncs2)C(=O)N2C[C@H](Oc4nc5cc(F)ccc5c5cc(F)ccc45)C[C@H]2C(=O)N3)CC1	> 1	100 to 500	100 to 500	> 1000	< 100
Cc1cc(C(=O)N[C@H]2CCCCC/C=C\[C@@H]3C[C@@]3(C(=O)NS(=O)(=O)C3CC3)NC(=O)[C@@H]3C[C@@H](Oc4nc5ccccc5c5cc(F)ccc45)CN3C2=O)no1	> 1	100 to 500	100 to 500	100 to 500	< 100
Cc1cc(C(=O)N[C@H]2CCCCC/C=C\[C@@H]3C[C@@]3(C(=O)NS(=O)(=O)C3(C)CC3)NC(=O)[C@@H]3C[C@@H](Oc4nc5cc(F)ccc5c5ccccc45)CN3C2=O)no1	> 1	100 to 500	100 to 500	100 to 500	< 100
O=C(N[C@H]1CCCCC/C=C\[C@@H]2C[C@@]2(C(=O)NS(=O)(=O)C2CC2)NC(=O)[C@@H]2C[C@@H](Oc3nc4ccccc4c4cc(F)ccc34)CN2C1=O)c1cncs1	> 1	100 to 500	100 to 500	500 to 1000	100 to 500
Cc1cc(C(=O)N[C@H]2CCCCC/C=C\[C@@H]3C[C@@]3(C(=O)NS(=O)(=O)C3CC3)NC(=O)[C@@H]3C[C@@H](Oc4nc5cc(F)ccc5c5ccccc45)CN3C2=O)no1	> 1	100 to 500		100 to 500	
COc1ccc2c(c1)c(O[C@@H]1C[C@H]3C(=O)N[C@]4(C(=O)NS(=O)(=O)C5CC5)C[C@H]4/C=C\CCCCC[C@H](NC(=O)c4cc(C)on4)C(=O)N3C1)nc1ccccc12	> 1	500 to 1000	100 to 500	100 to 500	< 100
Cn1ccc(C(=O)N[C@H]2CCCCC/C=C\[C@@H]3C[C@@]3(C(=O)NS(=O)(=O)C3CC3)NC(=O)[C@@H]3C[C@@H](Oc4nc5cc(F)ccc5c5ccccc45)CN3C2=O)n1		< 100	100 to 500	100 to 500	100 to 500
COc1ccc2c(c1)nc(O[C@@H]1C[C@H]3C(=O)N[C@]4(C(=O)NS(=O)(=O)C5CC5)C[C@H]4/C=C\CCCCC[C@H](NC(=O)c4cc(C)on4)C(=O)N3C1)c1ccc(F)cc12	> 1	100 to 500		100 to 500	
Cn1ccc(C(=O)N[C@H]2CCCCC/C=C\[C@@H]3C[C@@]3(C(=O)NS(=O)(=O)C3CC3)NC(=O)[C@@H]3C[C@@H](Oc4nc5cc(OC(F)(F)F)ccc5c5ccccc45)CN3C2=O)n1		< 100	100 to 500	< 100	< 100
Cc1cc(C(=O)N[C@H]2CCCCC/C=C\[C@@H]3C[C@@]3(C(=O)NS(=O)(=O)C3(C)CC3)NC(=O)[C@@H]3C[C@@H](Oc4nc5cc(OC(F)(F)F)ccc5c5ccccc45)CN3C2=O)no1	> 1	100 to 500	100 to 500	500 to 1000	100 to 500
CC1(S(=O)(=O)NC(=O)[C@@]23C[C@H]2/C=C\CCCCC[C@H](NC(=O)[C@H](O)C(F)(F)F)C(=O)N2C[C@H](Oc4nc5cc(F)ccc5c5ccccc45)C[C@H]2C(=O)N3)CC1	> 1	100 to 500	< 100	100 to 500	< 100
COc1ccc2c(c1)nc(O[C@@H]1C[C@H]3C(=O)N[C@]4(C(=O)NS(=O)(=O)C5(C)CC5)C[C@H]4/C=C\CCCCC[C@H](NC(=O)c4cc(C)on4)C(=O)N3C1)c1ccccc12	> 1	100 to 500	100 to 500	100 to 500	< 100
Cn1ccc(C(=O)N[C@H]2CCCCC/C=C\[C@@H]3C[C@@]3(C(=O)NS(=O)(=O)C3(C)CC3)NC(=O)[C@@H]3C[C@@H](Oc4nc5cc(F)ccc5c5cc(F)ccc45)CN3C2=O)n1		< 100	100 to 500	100 to 500	100 to 500

SMILES	EC50 [1] [nM]	EC50 [2] [pM]	EC50 [3] [pM]	EC50 [4] [pM]	EC50 [5] [pM]
Cn1ccc(C(=O)N[C@H]2CCCCC/C=C\[C@@H]3C[C@@]3(C(=O)NS(=O)(=O)C3(C)CC3)NC(=O)[C@@H]3C[C@@H](Oc4nc5cc(F)ccc5c5ccccc45)CN3C2=O)n1	0.1 to 0.5	100 to 500	100 to 500	500 to 1000	100 to 500
Cc1ccc(C(=O)N[C@H]2CCCCC/C=C\[C@@H]3C[C@@]3(C(=O)NS(=O)(=O)C3(C)CC3)NC(=O)[C@@H]3C[C@@H](Oc4nc5cc(F)ccc5c5ccccc45)CN3C2=O)o1	< 1	100 to 500	100 to 500	500 to 1000	100 to 500
Cc1cc(C(=O)N[C@H]2CCCCC/C=C\[C@@H]3C[C@@]3(C(=O)NS(=O)(=O)C3CC3)NC(=O)[C@@H]3C[C@@H](Oc4nc5cc(F)c(F)cc5c5ccc(OC(F)(F)F)cc45)CN3C2=O)no1	> 1	500 to 1000	< 100	500 to 1000	< 100
Cn1ccc(C(=O)N[C@H]2CCCCC/C=C\[C@@H]3C[C@@]3(C(=O)NS(=O)(=O)C3CC3)NC(=O)[C@@H]3C[C@@H](Oc4nc5cc(F)ccc5c5cc(OC(F)(F)F)ccc45)CN3C2=O)n1	> 1	< 100	100 to 500	500 to 1000	100 to 500
Cn1ccc(C(=O)N[C@H]2CCCCC/C=C\[C@@H]3C[C@@]3(C(=O)NS(=O)(=O)C3CC3)NC(=O)[C@@H]3C[C@@H](Oc4nc5cccc(F)c5c5ccccc45)CN3C2=O)n1		< 100	100 to 500	500 to 1000	500 to 1000
Cc1cc(C(=O)N[C@H]2CCCCC/C=C\[C@@H]3C[C@@]3(C(=O)NS(=O)(=O)C3(C)CC3)NC(=O)[C@@H]3C[C@@H](Oc4nc5ccccc5c5ccc(F)cc45)CN3C2=O)no1	> 1	500 to 1000	100 to 500	500 to 1000	< 100
Cn1ccc(C(=O)N[C@H]2CCCCC/C=C\[C@@H]3C[C@@]3(C(=O)NS(=O)(=O)C3(C)CC3)NC(=O)[C@@H]3C[C@@H](Oc4nc5ccccc5c5cccc(F)c45)CN3C2=O)n1		100 to 500	100 to 500	< 100	100 to 500
Cn1ccc(C(=O)N[C@H]2CCCCC/C=C\[C@@H]3C[C@@]3(C(=O)NS(=O)(=O)C3CC3)NC(=O)[C@@H]3C[C@@H](Oc4nc5cc(F)ccc5c5cc(F)ccc45)CN3C2=O)n1		< 100	100 to 500	500 to 1000	100 to 500
Cn1ccc(C(=O)N[C@H]2CCCCC/C=C\[C@@H]3C[C@@]3(C(=O)NS(=O)(=O)C3CC3)NC(=O)[C@@H]3C[C@@H](Oc4nc5ccccc5c5cccc(F)c45)CN3C2=O)n1		< 100	500 to 1000	500 to 1000	100 to 500
CC1(S(=O)(=O)NC(=O)[C@@]23C[C@H]2/C=C\CCCCC[C@H](NC(=O)c2ccn(C(F)F)n2)C(=O)N2C[C@H](Oc4nc5cc(F)ccc5c5ccccc45)C[C@H]2C(=O)N3)CC1		100 to 500	100 to 500	500 to 1000	100 to 500
Cc1ccc(C(=O)N[C@H]2CCCCC/C=C\[C@@H]3C[C@@]3(C(=O)NS(=O)(=O)C3(C)CC3)NC(=O)[C@@H]3C[C@@H](Oc4nc5ccccc5c5cc(F)ccc45)CN3C2=O)s1	> 1		100 to 500		100 to 500
COc1ccc2c(c1)nc(O[C@@H]1C[C@H]3C(=O)N[C@]4(C(=O)NS(=O)(=O)C5(C)CC5)C[C@H]4/C=C\CCCCC[C@H](NC(=O)c4ccn(C)n4)C(=O)N3C1)c1ccc(F)cc12	0.1 to 0.5		100 to 500		100 to 500
CC1(S(=O)(=O)NC(=O)[C@@]23C[C@H]2/C=C\CCCCC[C@H](NC(=O)c2ccon2)C(=O)N2C[C@H](Oc4nc5cc(F)ccc5c5cc(OC(F)(F)F)ccc45)C[C@H]2C(=O)N3)CC1	> 1		100 to 500		< 100
COc1ccc2c(c1)c(O[C@@H]1C[C@H]3C(=O)N[C@]4(C(=O)NS(=O)(=O)C5CC5)C[C@H]4/C=C\CCCCC[C@H](NC(=O)c4cc(C)on4)C(=O)N3C1)nc1cc(F)ccc12	> 1	500 to 1000		500 to 1000	
Cc1ccc(C(=O)N[C@H]2CCCCC/C=C\[C@@H]3C[C@@]3(C(=O)NS(=O)(=O)C3(C)CC3)NC(=O)[C@@H]3C[C@@H](Oc4nc5cc(OC(F)(F)F)ccc5c5ccc(F)cc45)CN3C2=O)s1	> 1		100 to 500		100 to 500
Cn1ccc(C(=O)N[C@H]2CCCCC/C=C\[C@@H]3C[C@@]3(C(=O)NS(=O)(=O)C3(C)CC3)NC(=O)[C@@H]3C[C@@H](Oc4nc5cc(F)ccc5c5ccc(OC(F)(F)F)cc45)CN3C2=O)n1	0.1 to 0.5		100 to 500		< 100
